What is called IC50 is the point on the concentration scale where inhibition reaches its midpoint. Low values mean inhibition by little substance, high ones a need for much substance. Usually EC50 stands for the concentration that produces a half-maximal response.

This is an account of results in ChEMBL document CHEMBL1132124 (Bioorg Med Chem Lett, 1999).

In one assay the target is T1, Glutamate receptor ionotropic, NMDA 1 (Rattus norvegicus, UniProt P35439). Nature of the assay: In vitro inhibitory activity to inhibit [3H]glycine binding to NMDA receptor.
Turning to `C[C@@H]1CN(O)C(=O)[C@@H]1N`, the IC50 came out at 1.87 µM.
Still for that read-out and setting: next, `O=C1C(CO)NCN1O` (stereo not drawn): 78 µM; `CC1NCN(O)C1=O` (stereo not drawn): 78 µM; `CC1NCC(=O)N1O` (stereo not drawn): 83 µM.

The target in another assay is T1, Glutamate receptor ionotropic, NMDA 1. Nature of the assay: In vitro inhibitory activity to inhibit [3H]glycine binding to NMDA receptor; IA means inactive.
With `NC1CCONC1=O` (stereo not drawn), the IC50 result is “Not Active”.
Still for that read-out and setting: next, `O=C1CNCN1`: “Not Active”.
On the same count and under the same terms, next, `NC1CS(=O)(=O)NC1=O` (stereo not drawn): “Not Active”.
Same read-out and setting: to `CC1NC(C)N(O)C1=O` (stereo not drawn) belongs “Not Active”; to `O=C1CCCN1O`, “Not Active”; to `CC1ONC(=O)C1N` (stereo not drawn), “Not Active”.
With `O=C1CCNCN1O`, the IC50 result is listed as “Not Active”.

The next assay concerns the target Glutamate NMDA receptor. The assay is described as follows: In vitro concentration eliciting half-maximal effect on [3H]-MK 801 radioligand binding to NMDA receptor. In kind it is protein-complex assay.
Take `C[C@@H]1CN(O)C(=O)[C@@H]1N`: it took 9.5 µM to reach a half-maximal effect (EC50).
Consider `O=C1CNCN1O`, for which the EC50 came to 4.33 µM. This EC50 lies about 2.2-fold lower than the previous one.

Tested on in a further assay: not listed separately
The assay is described as follows: In vitro maximal effect on [3H]-MK 801 binding to NMDA receptor as compared to a basal value of 100%.
`C[C@@H]1CN(O)C(=O)[C@@H]1N` returned an ME of 18%.
The compound `N[C@H](CO)C(=O)O` gave an ME of 169%.
Turning to `O=C1CNCN1O`, the ME came out at 146%.
On the same count and under the same terms, next, `NCC(=O)O`: 159%; `N[C@@H]1CONC1=O`: 122%.
